Numbering of substitutions follows the chain as printed.
Key:
[1] = target: T1, Zea mays EPSPS variant Zm-H6 (868-H6) (Zea mays, UniProt O24566, A1R/A3W/A415G/A71Q/D401G/E301S/E390G/G101A/I207L/K83R/L97C/T278A/T360S/T440Q/V437R); test: Substrate saturation analysis with glyphosate (Example 8), Zm-H6; format: biochemical
T1 sequence (O24566 with tags, fused parts or gaps A1R/A3W/A71Q/K83R/L97C/G101A/I207L/T278A/E301S/T360S/E390G/D401G/A415G/V437R/T440Q): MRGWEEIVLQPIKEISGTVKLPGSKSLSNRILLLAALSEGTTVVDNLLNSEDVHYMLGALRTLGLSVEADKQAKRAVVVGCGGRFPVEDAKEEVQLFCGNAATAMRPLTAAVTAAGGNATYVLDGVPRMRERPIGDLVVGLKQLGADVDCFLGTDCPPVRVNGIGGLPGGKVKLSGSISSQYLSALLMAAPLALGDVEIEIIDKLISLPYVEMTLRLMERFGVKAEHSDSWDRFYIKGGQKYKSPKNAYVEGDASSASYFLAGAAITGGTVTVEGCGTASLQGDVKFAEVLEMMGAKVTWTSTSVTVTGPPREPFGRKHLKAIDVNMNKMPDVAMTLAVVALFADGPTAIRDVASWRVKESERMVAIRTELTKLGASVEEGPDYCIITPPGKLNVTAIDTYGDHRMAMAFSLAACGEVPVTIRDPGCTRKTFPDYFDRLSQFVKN
Description: Generally, (kcat/KM)*KI is obtained by performing substrate saturation analysis in the absence and presence of inhibitor. However, that analysis takes longer. […] To validate the method, (kcat/KM)*KI was quantified using both methods—traditional (saturation) and the instant method (rapid), for variants of maize 5-enolpyruvylshikimate-3-phosphate synthase (EPSPS) and its competitive inhibitor, glyphosate.
The amino acid sequence of mature Zea mays EPSPS was obtained from GenBank entry CAA44974.1 (SEQ ID NO:2). A nucleotide sequence was created to add an N-terminal methionine and to optimize codon usage for expression in E. coli. The synthesized gene was cloned into an expression vector that provides a T7 promoter driving expression of the protein and a 10× N-terminal histidine tag. Variants selected for this study include native maize EPSPS and variants generated by a gene shuffling cascade described herein. […] Protein concentration was determined by absorbance at 280 nm using an extinction coefficient of 0.676 OD/mg/m L. The proteins were normalized to 0.5 mg/mL for assay.
EPSPS activity was determined by quantifying the phosphate generated by the reaction. […] The absorbance change that occurs was monitored continuously at 360 nm, where the extinction is 11,200 M-1 cm-1, with a Spectramax plate reader (Molecular Devices). […]

[2] = target: T2, Zea mays EPSPS variant Zm-H6 (868-H6) with D196V (H6-D196V) (Zea mays, UniProt O24566, A1R/A3W/A415G/A71Q/D195V/D401G/E301S/E390G/G101A/I207L/K83R/L97C/T278A/T360S/T440Q/V437R); test: Rapid two-rate method for (kcat/KM)*KI, H6-D196V; format: biochemical; conditions: [E] 0.07 uM, [Gly] 1000 uM
T2 construct: shuffled variant 868-H6 plus D196V; E. coli BL21(DE3), Ni-NTA purified
T2 sequence (O24566 with tags, fused parts or gaps A1R/A3W/A71Q/K83R/L97C/G101A/D195V/I207L/T278A/E301S/T360S/E390G/D401G/A415G/V437R/T440Q): T1 sequence (O24566 with tags, fused parts or gaps A1R/A3W/A71Q/K83R/L97C/G101A/I207L/T278A/E301S/T360S/E390G/D401G/A415G/V437R/T440Q) with D196V
Description: There are several practical considerations for accurately estimating (kcat/KM)*KI with the rapid method. […] 2) The inhibitor concentration must be adjusted so as to obtain a degree of inhibition that minimally amplifies the error in the term v0-vi in Equation 3. If inhibition is too little, v0-vi will be small, and the error in the multiplier vi×v0/(v0-vi) will be large. […] 3) Substrate concentration should be set at the approximate KM of the parental variant(s), subject to the sensitivity of the assay. High substrate concentration obscures sensitivity to the inhibitor and reduces stringency for capturing improvements in KM. Depending on the necessity for speed, there exists opportunity for customizing enzyme and inhibitor concentrations. […] The rapid method was repeated for those and obtained data that correlated better with data obtained by substrate saturation analysis. For screening purposes however, that correlation step is not necessary. Conditions can be set so that variants with a pre-determined minimal fitness level are accurately quantified.
In Table 15, parameters above the heavy line for the rapid method were obtained under standard conditions. For variants shown below the heavy line, the rapid analysis was repeated with enzyme or glyphosate concentrations adjusted as needed to generate sufficient signal within the limits for linear initial rates.

**Q.** How did the Ki [1] turn out when `O=C(O)CNCP(=O)(O)O` [glyphosate, N-phosphonomethylglycine] was run?
**A.** 381 µM

**Q.** And the “(kcat/KM)*KI” value ([1]; substrate saturation, Zm-H6)?
**A.** 3660

**Q.** And the “(kcat/KM)*KI” value [2]?
**A.** 1704

— patent US11549123B2, “Plant EPSP synthases and methods of use” (PIONEER HI-BRED INTERNATIONAL, INC., priority 2015, dated 2023)
